Where “and” joins values, the source holds several entries; their conditions need not be identical. Identical values can stand only once. Marks after values point to notes of the source that are not given here.

This is an account of results in patent US7211599B2, “Use of etodolac to treat hyperplasia” (The Regents of the University of California, priority 2002, dated 2007).

For data set [1] the following is noted: cited from earlier work.
Data set [2] concerns transgenic adenocarcinoma mouse prostate (TRAMP) mouse. In words: TRAMP animal model: histopathological evaluation of the prostate (grade 1-6). It is filed as in vivo. The conditions noted are these: for Overall Mean (staging of group): TRAMP mice; for Average mouse Staging: mean of lobe grades. More on the design: key to Average mouse Staging / Overall Mean (staging of group) / Histopathological grade, Lateral prostate: histological grade on 1-6 scale of hyperplasia/neoplasia/carcinoma. The method, then:
(§1) The transgenic adenocarcinoma mouse prostate (TRAMP) mouse, was used to evaluate the effect of R-etodolac on prostate cancer progression. The etodolac was compounded into the diet at 312 ppm (low dose) and 1250 ppm (high dose) and the animals were treated for 18 weeks. At necoscopy, the urogenital system was removed and weighed. The prostate lobes, seminal vesicles, lungs, liver, and periaortic lymph nodes were preserved and sectioned for histological evaluation and graded on a 1-6 scale for degree of hyperplasia/neoplasia/carcinoma.

The test system of data set [3] is rats with adjuvant polyarthritis. To be noted: Demerson et al. 1983; cited from earlier work.
The conditions of data set [4]: cited from earlier work. The source holds these as a separate data set.
The subject of data set [5] is transgenic adenocarcinoma mouse prostate (TRAMP) mouse. In words: TRAMP animal model: average weight of dissected prostate lobes. In kind it is in vivo. The method, then: as §1
A further data set has as its system hyperplastic cells. In words: Activity against hyperplastic cells. The conditions noted are these: compared with S(+) enantiomer. An excerpt:
The pharmacokinetics of etodolac have been extensively reviewed by D. R. Brocks et al., Clin. Pharmacokinet., 26, 259 (1994). Etodolac is marketed as the racemate.

Another data set relates to prostaglandin synthetase. The conditions noted are these: Demerson et al. 1983; cited from earlier work.
Setting [6] is: TRAMP mice treated with R-etodolac.
[7] abbreviates: after a 200 mg dose in six elderly patients.
Setting [8] is: TRAMP mice, High Dose (1250 ppm in diet), 18 weeks, average ± standard deviation.
Setting [9] is: TRAMP mice, Low Dose (312 ppm in diet), 18 weeks, average ± standard deviation.

For `CCc1cccc2c3c([nH]c12)C(CC)(CC(=O)O)OCC3` (racemic) [etodolac, 1,8-diethyl-1,3,4,9-tetrahydro[3,4-6]indole-1-acetic acid], the Elimination half-life in data set [1] (racemic mixture) is 6 to 8 h.

Turning to `CCc1cccc2c3c([nH]c12)[C@@](CC)(CC(=O)O)OCC3` [R-etodolac], in data set [2] (setting [6]), the “Effects in any other tissues” value is on record as “No other effects in any other tissues were observed” and the “Progression of the disease (histological analysis)” value was “maintaining the animals in a pre-cancerous stage”. For the same compound, in data set [2] (High dose group (1250 ppm in diet), 18 weeks, statistically significant from control group, p < 0.005), the “Overall Mean (staging of group)” value is 3.3*. In addition, in data set [2] (Low dose group (312 ppm in diet), 18 weeks), the “Overall Mean (staging of group)” value stood at 4.3. The “Average mouse Staging” value in data set [2] (individual TRAMP mice, High dose (1250 ppm in diet), 18 weeks) is 3.8 and 3.3 (3×) and 3.5 and 3.0. Also, in data set [2] (individual TRAMP mice, Low dose (312 ppm in diet), 18 weeks, grade 1-6), the “Histopathological grade, Lateral prostate” value came out at 3.5. In addition, the “Average mouse Staging” value in data set [2] (individual TRAMP mice, Low dose (312 ppm in diet), 18 weeks) is 4.0 (2×) and 5.5 and 3.6 and 4.5 and 6.0. Also, the Maximum plasma concentration entry in data set [1] (setting [7]) was “about 33 μM”. Besides, the “Plasma concentrations of R-enantiomer relative to S-enantiomer” value in data set [1] (in plasma after administration of RS-etodolac, Brocks et al. 1994) is given as “about 10 fold”. The “Anti-inflammatory activity (reduction in paw volume)” value in data set [3] is reported as “No anti-inflammatory activity was discernible”. Also, the “Conversion to the S(+) enantiomer in vivo” value in data set [4] was “not converted significantly”. Also, in data set [5] (setting [8]), the “Average weigh (g) Anterior Prostate” value was 0.076 ± 0.012 g, the “Average weigh (g) Dorsal Prostate” value was determined as 0.053 ± 0.013 g, the “Average weigh (g) Lateral Prostate” value was determined as 0.016 ± 0.003 g and the “Average weigh (g) Ventral prostate” value is given as 0.014 ± 0.001 g. Further, in data set [5] (setting [8]), the “Total Weigh average” value was found to be 0.160 ± 0.022 g. Moreover, in data set [5] (setting [9]), the “Average weigh (g) Anterior Prostate” value was found to be 0.062 ± 0.033 g, the “Average weigh (g) Dorsal Prostate” value is on record as 0.062 ± 0.027 g, the “Average weigh (g) Lateral Prostate” value was determined as 0.015 ± 0.001 g and the “Average weigh (g) Ventral prostate” value is reported as 0.024 ± 0.017 g. Further, the “Overall size of the prostates” value in data set [5] (TRAMP mice, highest dose) is recorded as “reduction of the overall size of the prostates”. In addition, the “Overall size of the prostates” value in data set [5] (treated mice compared to untreated mice) is listed as “reduces the overall size of the prostates”. Moreover, the “Activity against hyperplastic cells” value with hyperplastic cells was “potent activity against hyperplastic cells that is at least equivalent to that of the S(+) enantiomer”.

Regarding `CCc1cccc2c3c([nH]c12)[C@](CC)(CC(=O)O)OCC3` (single isomer, unassigned) [S(+)-enantiomer of etodolac, reference compound], the “Maximum concentration relative to R-enantiomer” value in data set [1] (setting [7]) is recorded as 5 fold lower. Besides, in data set [3], the “Anti-inflammatory activity (reduction in paw volume)” value is recorded as “almost all of the anti-inflammatory activity of the racemate”. In the data set on prostaglandin synthetase, the “Prostaglandin synthetase inhibitory activity” value is reported as “almost all”.
